Read-outs that look alike come from different tables or passages of the source.
Tests used:
[1] = log P determination by LC-MS in the acidic range; type: physicochemical; settings: for log P (acid): LC-MS in the acidic range
Source text: The LC-MS determination in the acidic range is effected at pH 2.7 using 0.1% aqueous formic acid and acetonitrile (contains 0.1% formic acid) as eluents, linear gradient from 10% acetonitrile to 95% acetonitrile. Alternatively, the determination is effected in the acidic range at pH 2.3 using 0.1% aqueous phosphoric acid and acetonitrile as eluents; linear gradient from 10% acetonitrile to 95% acetonitrile.

Myzus persicae [2] = test: Myzus persicae - sachet test; type: in vivo; settings: 100% = all animals killed; for pest or weed control at 6 ppm / pest or weed control at 30 ppm: Myzus persicae, read-out: efficacy (kill in %)
Summary of the method: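 Active ingredient dissolved with 2% N-methylpyrrolidone and 2% diacetone alcohol, diluted in water, then pipetted into nutrient medium. Plate sealed and paired with a plate carrying green peach aphids. Kill in % scored after the set time (100% = all dead, 0% = none dead).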

Myzus persicae [3] = test: Myzus persicae - spray test; type: in vivo; settings: application rate of 500 g/ha, after 6 days, sprayed Chinese cabbage leaf discs infested by all stages, 100% = all aphids killed; for pest or weed control at 500 g/ha: Myzus persicae, foliar, 144 h, read-out: efficacy in %
Description: Myzus persicae—spray test Solvent: 78 parts by weight of acetone • • 1.5 parts by weight of dimethylformamide Emulsifier: 0.5 part by weight of alkylaryl polyglycol ether To produce an appropriate active ingredient formulation, 1 part by weight of active ingredient is mixed with the specified amounts of solvent and emulsifier, and the concentrate is diluted to the desired concentration with emulsifier-containing water. Discs of Chinese cabbage leaves (Brassica pekinensis) infested by all stages of the green peach aphid (Myzus persicae) are sprayed with an active ingredient formulation of the desired concentration. After 6 days, the efficacy in % is determined. 100% means that all the aphids have been killed; 0% means that no aphids have been killed.

[4] = application rate of 6 ppm in nutrient medium
[5] = application rate of 30 ppm in nutrient medium
[6] = pH 2.7, LC-MS in the acidic range, read-out: log P (acid)
[7] = pH 2.7, values given in the synthesis examples and NMR lists, read-out: HPLC-MS: log P

| log P (acid) [1] | chromatographic logP [1, 6] | chromatographic logP [1, 7] | Structure (SMILES) | efficacy (kill in %) (Myzus persicae [2]; [4]) [%] | efficacy (kill in %) (Myzus persicae [2]; [5]) [%] | efficacy in % (Myzus persicae [3]) [%] | pest or weed control at 6 ppm (Myzus persicae [2]; [4]) [%] | pest or weed control at 30 ppm (Myzus persicae [2]; [5]) [%] | pest or weed control at 500 g/ha (Myzus persicae [3]) [%] |
| --- | --- | --- | --- | --- | --- | --- | --- | --- | --- |
| 0.77 | – | – | Cc1cc(NC(=O)c2cccnc2)nn1Cc1ncccn1 [Compound I-1-1] | 100 | 100 | 90 | – | – | – |
| 1.1 | – | – | CCOCn1nc(NC(=O)c2cccnc2)cc1C [Compound I-1-2] | 100 | 100 | 100 | – | – | – |
| 0.63 | – | – | Cc1cc(NC(=O)c2cccnc2)nn1C [Compound I-1-3] | 100 | 100 | 90 | – | – | – |
| 1.05 | – | – | Cc1cc(NC(=O)c2cccnc2)nn1CC(F)F [Compound I-1-4] | 100 | 100 | 100 | – | – | – |
| 0.84 | – | – | Cc1cc(NC(=O)c2cccnc2)nn1CCF [Compound I-1-5] | 100 | 100 | 90 | – | – | – |
| 0.88 | – | – | Cc1cc(NC(=O)c2cccnc2)nn1Cc1ccccn1 [Compound I-1-6] | 100 | 100 | 90 | – | – | – |
| – | 1.11 | 1.11 | Cc1cc(NC(=O)c2cncc(F)c2)nn1Cc1ncccn1 [Compound I-1-7, 5-Fluoro-N-[5-methyl-1-(pyrimidin-2-ylmethyl)-1H-pyrazol-3-yl]nicotinamide] | – | – | – | 100 | 100 | 90 |
| 1.19 | – | – | Cc1cc(NC(=O)c2cccnc2)nn1C(F)F [Compound I-1-8] | 100 | 100 | 90 | – | – | – |
| 0.42 | – | – | O=C(Nc1ccn(Cc2ncccn2)n1)c1cccnc1 [Compound I-1-9] | 100 | 100 | 100 | – | – | – |
| 1.43 | – | – | O=C(Nc1ccn(CC(F)(F)F)n1)c1cccnc1 [Compound I-1-10] | 100 | 100 | 90 | – | – | – |
| 0.7 | – | – | Cc1cc(NC(=O)c2cccnc2)nn1CC#N [Compound I-1-11] | 100 | 100 | 80 | – | – | – |
| 1.59 | – | – | Cc1cc(NC(=O)c2cccnc2)nn1CC(C)C [Compound I-1-12] | 100 | 100 | 80 | – | – | – |
| 0.74 | – | – | O=C(Nc1ccn(CC(F)F)n1)c1cccnc1 [Compound I-1-13] | 100 | 100 | 90 | – | – | – |
| 1.05 | – | – | Cc1cc(NC(=O)c2cccnc2)nn1Cc1nccs1 [Compound I-1-14] | 100 | 100 | 80 | – | – | – |
| 0.12 | – | – | Cc1cc(NC(=O)c2cccnc2)nn1Cc1cccnc1 [Compound I-1-15] | 100 | 100 | 90 | – | – | – |
| 0.65 | – | – | Cc1cc(N(C)C(=O)c2cccnc2)nn1C [Compound I-1-16] | – | 100 | 90 | – | – | – |

| log P (acid) [1] | chromatographic logP [1, 6] | chromatographic logP [1, 7] | Structure (SMILES) | efficacy (kill in %) (Myzus persicae [2]; [4]) [%] | efficacy (kill in %) (Myzus persicae [2]; [5]) [%] | efficacy in % (Myzus persicae [3]) [%] | pest or weed control at 6 ppm (Myzus persicae [2]; [4]) [%] | pest or weed control at 30 ppm (Myzus persicae [2]; [5]) [%] | pest or weed control at 500 g/ha (Myzus persicae [3]) [%] |
| --- | --- | --- | --- | --- | --- | --- | --- | --- | --- |
| – | 0.3 | 0.3 | Cc1cc(NC(=O)c2cccnc2)n[nH]1 [Compound I-1-17, N-(5-Methyl-1H-pyrazol-3-yl)nicotinamide] | – | – | – | 100 | 100 | 90 |
| – | 2.04 | 2.04 | Cc1cc(NC(=O)c2cccnc2)nn1C(=O)OC(C)(C)C [Compound I-1-18, tert-Butyl 5-methyl-3-[(pyridin-3-ylcarbonyl)amino]-1H-pyrazole-1-carboxylate] | – | – | – | 100 | 100 | 100 |
| 0.93 | – | – | C#CCn1nc(NC(=O)c2cccnc2)cc1C [Compound I-1-19] | 100 | 100 | 100 | – | – | – |
| 1.08 | – | – | Cc1cc(NC(=O)c2cccnc2)nn1Cc1ncccc1C#N [Compound I-1-20] | 100 | 100 | 90 | – | – | – |
| – | 1.16 | 1.14 | Cc1cc(NC(=O)c2cccnc2)nn1-c1ncccn1 [Compound I-1-23, N-[5-Methyl-1-(pyrimidin-2-yl)-1H-pyrazol-3-yl]nicotinamide] | – | – | – | 100 | 100 | 100 |
| – | 1.02 | 1.02 | Cc1cc(N(C)C(=O)c2cccnc2)nn1-c1ncccn1 [Compound I-1-25, N-Methyl-N-[5-methyl-1-(pyrimidin-2-yl)-1H-pyrazol-3-yl]nicotinamide] | – | – | – | 100 | 100 | 100 |
| 0.57 | – | – | O=C(Nc1ccn(Cc2ccccn2)n1)c1cccnc1 [Compound I-1-26] | 100 | 100 | 90 | – | – | – |
| 1.22 | – | – | O=C(Nc1ccn(Cc2ccc(Cl)nc2)n1)c1cccnc1 [Compound I-1-27] | 100 | 100 | 90 | – | – | – |
| 1.57 | – | – | Cc1cc(NC(=O)c2cccnc2)nn1C(=O)c1cccnc1 [Compound I-1-28] | 100 | 100 | 90 | – | – | – |
| 1.15 | – | – | O=C(Nc1ccn(-c2ncccc2F)n1)c1cccnc1 [Compound I-1-30] | 100 | 100 | 90 | – | – | – |
| 0.96 | – | – | Cc1ccnc(Cn2nc(NC(=O)c3cccnc3)cc2C)n1 [Compound I-1-31] | 100 | 100 | 90 | – | – | – |
| 0.72 | – | – | COC(=O)C(C)(C)NC(=O)Cn1nc(NC(=O)c2cccnc2)cc1C [Compound I-1-32] | 100 | 100 | 90 | – | – | – |
| 1.16 | – | – | Cc1cc(NC(=O)c2cccnc2)nn1CCCl [Compound I-1-33] | 100 | 100 | 100 | – | – | – |
| 1.35 | – | – | Cc1cc(NC(=O)c2cccnc2)nn1-c1ncccc1Cl [Compound I-1-34] | 100 | 100 | 100 | – | – | – |
| 1.2 | – | – | Cc1cc(C)nc(Cn2nc(NC(=O)c3cccnc3)cc2C)n1 [Compound I-1-36] | 100 | 100 | 90 | – | – | – |
| 0.93 | – | – | CCn1nc(NC(=O)c2cccnc2)cc1C [Compound I-1-38] | 100 | 100 | 100 | – | – | – |

From patent publication US20160106102A1, “KNOWN AND NEW HETEROCYCLIC COMPOUNDS AS PEST CONTROL AGENTS” (BAYER CROPSCIENCE AKTIENGESELLSCHAFT, priority 2013, published 2016)
